In patent US20250163076A1, “SYNTHESIS OF BRUTON'S TYROSINE KINASE INHIBITORS” (JANSSEN PHARMACEUTICA NV, priority 2022, published 2025):
Values after ≈ are worked out from the molar mass of the structure shown. Where two headings read alike, the source gives them in different places. Marks after values point to notes of the source that are not given here. One block for each molecule: values may come before it.

Assays:
[1] = Aqueous solubility at pH 2 and pH 7; assay type: physicochemical; conditions: aqueous medium, Table 4
[2] = target: BTK (Homo sapiens, UniProt Q06187); experiment: BTK covalent inhibition kinetics (KI, kinact, kinact/KI); assay type: biochemical; conditions: Table 4; for Ki / kinact: average of 2 independent determinations (± SD)
BTK, sequence (Q06187 whole entry): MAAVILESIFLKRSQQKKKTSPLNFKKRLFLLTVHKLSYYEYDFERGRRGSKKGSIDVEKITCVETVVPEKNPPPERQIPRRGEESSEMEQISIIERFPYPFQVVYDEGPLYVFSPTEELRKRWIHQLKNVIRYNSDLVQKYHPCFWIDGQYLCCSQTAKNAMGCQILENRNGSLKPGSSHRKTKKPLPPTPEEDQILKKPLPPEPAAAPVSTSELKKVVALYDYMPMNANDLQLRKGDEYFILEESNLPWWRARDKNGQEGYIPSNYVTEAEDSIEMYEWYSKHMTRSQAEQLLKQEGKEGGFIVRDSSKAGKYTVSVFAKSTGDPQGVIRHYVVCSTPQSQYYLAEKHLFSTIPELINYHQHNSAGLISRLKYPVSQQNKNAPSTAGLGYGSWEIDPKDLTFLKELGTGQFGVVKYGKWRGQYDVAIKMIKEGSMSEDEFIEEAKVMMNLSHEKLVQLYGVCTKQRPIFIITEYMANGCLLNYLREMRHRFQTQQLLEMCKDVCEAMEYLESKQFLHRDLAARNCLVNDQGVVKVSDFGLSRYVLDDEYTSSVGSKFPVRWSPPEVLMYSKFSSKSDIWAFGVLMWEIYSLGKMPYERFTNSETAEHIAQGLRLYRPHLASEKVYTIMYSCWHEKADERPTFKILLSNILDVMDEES
Description: The development of the structure-activity relationship was conducted by characterizing the non-covalent affinity of each inhibitor for BTK (KI) and the first order rate constant for irreversible covalent bond formation (kinact). The second order rate constant kinact/KI ratio is used to assess the covalent inhibitor potency because it is independent of incubation time and substrate concentrations (Copeland, R. A. Evaluation of Enzyme Inhibitors in Drug Discovery: a Guide for Medicinal Chemists and Pharmacologists; 2nd ed.; Wiley: Hoboken, N.J., 2013).

[3] = Human liver microsomes T1/2; assay type: in vitro ADME; conditions: human, liver microsomes; Table 4
[4] = Solubility of P and M forms in solvent systems and their water mixtures; assay type: physicochemical
Source text: Moreover, this solubility difference can be tuned by changing the ratio between 1-propanol/water. Therefore, M form can be efficiently converted even starting from a 1:1 d.r. mixture.

[5] = aqueous buffer, pH 7, read-out: Solubility pH 7
[6] = simulated gastric fluid, pH 2, read-out: Solubility pH 2

SMILES: C=CC(=O)N[C@H]1CCC[C@H]1NC(=O)c1sc2nccc3c2c1NC(=O)N3c1cnc(CC(C)C)cc1C (single isomer, unassigned) [P form]
Solubility ([4]; 1-Butanol/water (~6/94 w/w %), 10° C.): 0.01 mg/mL (≈ 0.0193 mM) | Solubility ([4]; 1-Butanol/water (~6/94 w/w %), 25° C.): 0.01 mg/mL (≈ 0.0193 mM) | Solubility ([4]; 1-Butanol/water (~6/94 w/w %), 50° C.): immiscible | Solubility ([4]; 1-Butanol/water (~80/20 w/w %), 10° C.): 18.2 mg/mL (≈ 35.1 mM) | Solubility ([4]; 1-Butanol/water (~80/20 w/w %), 25° C.): 20.7 mg/mL (≈ 39.9 mM) | Solubility ([4]; 1-Butanol/water (~80/20 w/w %), 50° C.): immiscible | Solubility ([4]; 1-Butanol, 10° C.): 137.3 mg/mL (≈ 265 mM) | Solubility ([4]; 1-Butanol, 25° C.): 132.8 mg/mL (≈ 256 mM) | Solubility ([4]; 1-Butanol, 50° C.): 197.6 mg/mL (≈ 381 mM) | Solubility ([4]; 1-Propanol/water (20/80 w/w %), 25° C.): 0.4 mg/mL (≈ 0.771 mM) | Solubility ([4]; 1-Propanol/water (20/80 w/w %), 50° C.): 0.5 mg/mL (≈ 0.964 mM) | Solubility ([4]; 1-Propanol/water (33/67 w/w %), 10 °C, aqueous with cosolvent or surfactant or cyclodextrin, thermodynamic from solid, 1-Propanol/water (33/67 w/w %), 10° C., read-out: Solubility): 2.2 mg/mL (≈ 4.24 mM) | Solubility ([4]; 1-Propanol/water (33/67 w/w %), 25° C.): 1.9 mg/mL (≈ 3.66 mM) | Solubility ([4]; 1-Propanol/water (33/67 w/w %), 50° C.): 1.8 mg/mL (≈ 3.47 mM) | Solubility ([4]; 1-Propanol/water (50/50 w/w %), 25° C.): 8.5 mg/mL (≈ 16.4 mM) | Solubility ([4]; 1-Propanol/water (50/50 w/w %), 50° C.): 15.6* mg/mL | Solubility ([4]; 1-Propanol/water (67/33 w/w %), 10° C.): 18.0 mg/mL (≈ 34.7 mM) | Solubility ([4]; 1-Propanol/water (67/33 w/w %), 25° C.): 20.8 mg/mL (≈ 40.1 mM) | Solubility ([4]; 1-Propanol/water (67/33 w/w %), 50° C.): 20.3* mg/mL | Solubility ([4]; 1-Propanol/water (80/20 w/w %), 10° C.): 24.8 mg/mL (≈ 47.8 mM) | Solubility ([4]; 1-Propanol/water (80/20 w/w %), 25° C.): 26.3 mg/mL (≈ 50.7 mM) | Solubility ([4]; 1-Propanol/water (80/20 w/w %), 50° C.): 32.3* mg/mL | Solubility ([4]; 1-Propanol, 10° C.): 206.8 mg/mL (≈ 399 mM) | Solubility ([4]; 1-propanol, 25 °C, organic solvent or mixture, 1-Propanol, 25° C., read-out: Solubility): 197 mg/mL (≈ 380 mM) | Solubility ([4]; 1-propanol, 50 °C, organic solvent or mixture, 1-Propanol, 50° C., read-out: Solubility): 255 mg/mL (≈ 492 mM) | Solubility ([4]; 1-propanol/water (50/50 w/w %), 10 °C, aqueous with cosolvent or surfactant or cyclodextrin, thermodynamic from solid, 1-Propanol/water (50/50 w/w %), 10° C., read-out: Solubility): 8.1 mg/mL (≈ 15.6 mM) | Solubility ([4]; 2-butanol/water (~17/83 w/w %), 50 °C, aqueous with cosolvent or surfactant or cyclodextrin, 2-butanol/water (~17/83 w/w %), 50° C., read-out: Solubility): 0.2 mg/mL (≈ 0.386 mM) | Solubility ([4]; 2-butanol/water (~17/83 w/w %), 10° C.): 0.5 mg/mL (≈ 0.964 mM) | Solubility ([4]; 2-butanol/water (~17/83 w/w %), 25° C.): 0.3 mg/mL (≈ 0.578 mM) | Solubility ([4]; Isobutanol, 10° C.): 105.8 mg/mL (≈ 204 mM) | Solubility ([4]; Isobutanol, 25° C.): 102.2 mg/mL (≈ 197 mM) | Solubility ([4]; Isobutanol, 50° C.): 134.3 mg/mL (≈ 259 mM) | Solubility ([4]; Isopropanol/water (~16/84 w/w %), 10° C.): 0.1 mg/mL (≈ 0.193 mM) | Solubility ([4]; Isopropanol/water (~16/84 w/w %), 25° C.): 0.2 mg/mL (≈ 0.386 mM) | Solubility ([4]; Isopropanol/water (~16/84 w/w %), 50° C.): 0.3 mg/mL (≈ 0.578 mM) | Solubility ([4]; Isopropanol/water (~28/72 w/w %), 10° C.): 0.4 mg/mL (≈ 0.771 mM) | Solubility ([4]; Isopropanol/water (~28/72 w/w %), 25° C.): 0.7 mg/mL (≈ 1.35 mM) | Solubility ([4]; Isopropanol/water (~28/72 w/w %), 50° C.): 1.1 mg/mL (≈ 2.12 mM) | Solubility ([4]; Isopropanol/water (~44/56 w/w %), 10° C.): 2.0 mg/mL (≈ 3.86 mM) | Solubility ([4]; Isopropanol/water (~44/56 w/w %), 25° C.): 3.0 mg/mL (≈ 5.78 mM) | Solubility ([4]; Isopropanol/water (~44/56 w/w %), 50° C.): 2.0 mg/mL (≈ 3.86 mM) | Solubility ([4]; Isopropanol/water (~61/39 w/w %), 10° C.): 4.0 mg/mL (≈ 7.71 mM) | Solubility ([4]; Isopropanol/water (~61/39 w/w %), 25° C.): 6.0 mg/mL (≈ 11.6 mM) | Solubility ([4]; Isopropanol/water (~61/39 w/w %), 50° C.): 4.0 mg/mL (≈ 7.71 mM) | Solubility ([4]; Propylene carbonate/water (93/7 w/w %), 10° C.): 10.9 mg/mL (≈ 21 mM) | Solubility ([4]; Propylene carbonate/water (93/7 w/w %), 25° C.): 9.0 mg/mL (≈ 17.4 mM) | Solubility ([4]; Propylene carbonate/water (93/7 w/w %), 50° C.): 8.6 mg/mL (≈ 16.6 mM) | Solubility ([4]; Propylene carbonate, 10° C.): 55.8 mg/mL (≈ 108 mM) | Solubility ([4]; isobutanol/water (~8/92 w/w %), 10 °C, aqueous with cosolvent or surfactant or cyclodextrin, Isobutanol/water (~8/92 w/w %), 10° C., read-out: Solubility): 0.1 mg/mL (≈ 0.193 mM) | Solubility ([4]; isobutanol/water (~8/92 w/w %), 25 °C, aqueous with cosolvent or surfactant or cyclodextrin, Isobutanol/water (~8/92 w/w %), 25° C., read-out: Solubility): 0.1 mg/mL (≈ 0.193 mM) | Solubility ([4]; isobutanol/water (~8/92 w/w %), 50 °C, aqueous with cosolvent or surfactant or cyclodextrin, Isobutanol/water (~8/92 w/w %), 50° C., read-out: Solubility): 0.1 mg/mL (≈ 0.193 mM) | Solubility ([4]; propylene carbonate, 25 °C, organic solvent or mixture, Propylene carbonate, 25° C., read-out: Solubility): 50.1 mg/mL (≈ 96.6 mM) | Solubility ([4]; propylene carbonate, 50 °C, organic solvent or mixture, Propylene carbonate, 50° C., read-out: Solubility): 97.3 mg/mL (≈ 188 mM)

SMILES: C=CC(=O)N1CCCC(NC(=O)c2sc3nccc4c3c2NC(=O)N4c2cnc(OC3CCCC3)cc2C)C1 (stereo not drawn) [Compound G]
Solubility [1, 5]: < 4 µM | Solubility [1, 6]: 15 µM (≈ 8.2 µg/mL) | Ki [2]: 0.0222 ± 0.0033 µM | kinact [2]: 0.000307 s⁻¹ | kinact/KI ([2]; read-out: kinact/KI): 13800 ± 430 M⁻¹ s⁻¹ | half-life [3]: < 4 min

SMILES: C=CC(=O)N1CCCC(NC(=O)c2sc3nccc4c3c2NC(=O)N4c2ccc(Oc3ccccc3)cn2)C1 (stereo not drawn) [C]
Solubility [1, 5]: 9 µM (≈ 4.87 µg/mL) | Solubility [1, 6]: 10 µM (≈ 5.41 µg/mL) | Ki [2]: 0.456 ± 0.007 µM | kinact [2]: 0.000303 s⁻¹ | kinact/KI ([2]; read-out: kinact/KI): 664 ± 44 M⁻¹ s⁻¹ | half-life [3]: < 4 min

Next, values leading:

Solubility [1, 5]: 4 µM (≈ 2.13 µg/mL) | Solubility [1, 6]: 10 µM (≈ 5.33 µg/mL) | Ki [2]: 0.064 ± 0.014 µM | kinact [2]: 0.000316 s⁻¹ | kinact/KI ([2]; read-out: kinact/KI): 5000 ± 560 M⁻¹ s⁻¹ | half-life [3]: < 4 min
SMILES: C=CC(=O)N1CCCC(NC(=O)c2sc3nccc4c3c2NC(=O)N4c2cnc(OC3CCC3)cc2C)C1 (stereo not drawn) [H]

Solubility [1, 5]: 68 µM (≈ 35.4 µg/mL) | Solubility [1, 6]: 119 µM (≈ 62 µg/mL) | kinact/KI [2]: 1660 ± 62 M⁻¹ s⁻¹ | Ki [2]: 0.208 ± 0.015 µM | kinact [2]: 0.000345 s⁻¹ | kinact/KI ([2]; read-out: kinact/KI): 1660 M⁻¹ s⁻¹ | half-life [3]: 19 min
SMILES: C=CC(=O)N1CCCC(NC(=O)c2sc3nccc4c3c2NC(=O)N4c2cnc(OC(C)C)cc2C)C1 (stereo not drawn) [Compound I]
